Data: paper PMC5374710, “Discovery of the first dual GSK3β inhibitor/Nrf2 inducer. A new multitarget therapeutic strategy for Alzheimer’s disease” (Scientific Reports, 2017)

Key:
[1] = biological target: T1, GSK3β (Homo sapiens, UniProt P49841); assay: GSK3β inhibition, luminescence Kinase-Glo assay; assay type: biochemical; settings: for IC50: four concentrations 0.1, 1, 10, 30 μM, ATP 1 μM, 1 h
T1 construct: purchased Promega V1991
Procedure: GSK3β inhibitory activity was evaluated using the method developed by Baki[66], with modifications. Compounds were dissolved in assay buffer, containing 40 mM Tris (pH 7.5), 20 mM MgCl2, 0.1 mg/ml BSA (bovine serum albumin) and 50 μM dithiothreitol (DTT) at the desired concentrations. Firstly, 10 μl of enzyme (10 ng) and 10 μl of each compound were mixed for 30 min. Then, 20 μl of a mixture of ATP (1 μM) and GSK3β peptidic substrate were added to each well. The mixture was incubated for 60 min at 30 °C. Thereafter, the remaining ATP concentration was measured with the Kinase-Glo system following instructions from the supplier. Luminescence was measured in an Orion II microplate luminometer (Berthold, Germany) as relative light units (RLU). […] IC50 values were calculated by non-linear regression analysis of individual concentration-response curves using GraphPad Prism 5.0 software (San Diego, CA, USA).
The ability of the compounds to inhibit GSK3β was evaluated using the method developed by Baki^9 with some modifications. The tested compounds were dissolved in assay buffer, containing 40 mM Tris (pH 7.5), 20 mM MgCl2, 0.1 mg/ml BSA (bovine serum albumin) and 50 µM dithiothreitol (DTT), to achieve final reaction concentrations of 0.1, 1, 10 and 30 µM. […] The GSK3β inhibition assay was performed in white 96-well plates, in duplicates. Firstly, 10 µl of enzyme (10 ng) were added to each well, followed by 10 µl of the compounds at the desired concentration. After 30 minutes, 20 µl of a mixture of ATP and GSK3β peptidic substrate were added to each well, achieving a final concentration of 1 µM of ATP and 25 of µM peptidic substrate. The mixture was incubated at 30 °C for 60 minutes. Once the reaction was finished, the remaining ATP concentration was measured by adding 40 µl/well of Kinase-Glo reagent. The luminescence was measured in an Orion II microplate luminometer (Berthold, Germany) as relative light units (RLU). The luminescence recorded is proportional to the amount of ATP present in each well.
Apparent Ki for each compound were calculated from GSK3β Km value for ATP, applying the Cheng-Prusoff equation^10,11 in its simplified form: Ki = IC50/(1+([S]/Km)), in which S refers to the ATP concentration and Km is the Michaelis constant of the substrate for GSK3β.

[2] = test system: SH-SY5Y cells; assay: Cytotoxicity in SH-SY5Y neuroblastoma cell line (MTT); settings: 24 h
Procedure: (§4) Viability was measured as MTT reduction in presence of increasing concentrations of derivatives. Values are expressed as LD50 calculated from dose-response curves of four different concentrations.
(§5) Cells were cultured in 48-well (SH-SY5Y, 1x10^5 cells per well) or 96-well plates (HepG2, 1x10^5 cells per well) for 24 h. […] Control cells were incubated with the same concentration of DMSO (0.1 % final concentration) without any drug.

[3] = test system: primary rat glial cells; assay: Nitrite production in LPS-stimulated primary glial cultures (Griess); assay type: cell-based; settings: Glial cell, 24 h pre-incubation, 18 h co-incubation with LPS 1 μg/mL, read-out: IC50 nitrite reduction
From the text: (§1) Therefore, we envisaged the study of compounds 5a–t as potential anti-inflammatory agents. We used primary rat glial cells treated with lipopolysaccharide (LPS) to induce the production of nitrites and ROS as a model of glial activation. Nitrite production is directly proportional to the expression of the iNOS, that is over-expressed when LPS activates glial cells. ROS production is proportional to NOX activation after stimulation with LPS. Results are summarized in Table 2 as IC50s of nitrite production reduction and ROS production reduction. We have included sulforaphane as control in all experiments (see the Supporting Information).
Glial cells were pre-incubated with increasing concentrations of compounds for 24 hours. Then, treatments were removed and cells were incubated with LPS (1 μg/mL) alone or in presence of each compound at the desired concentration. Nitrite production was assessed 18 hours later by modified Griess assay. Briefly, samples (150 μl) were mixed with dapsone (75 μl) and NEDA (75 μl), and the mixture was incubated at room temperature for 5 min. Light absorption was measured at 550 nm in a microplate reader (Labtech, Offenburg, Germany). All data were normalized to basal nitrite production, considering this value as 100% of nitrite production. IC50 values were calculated from dose-response curves represented as percentage of nitrite production reduction induced by the different concentrations of each compound.
(§2) Mixed glial cultures were obtained from cerebral cortex of 2-5 day-old Sprague-Dawley rats. After removal of blood vessels and meninges, the forebrains were dissociated in DMEM/F12 medium. After mechanical dissociation, cells were plated (3x10^5 cells/ml) in DMEM/F12 medium with 20% fetal bovine serum (FBS) and 1 % penicillin/streptomycin (10,000 units), at 37 °C and in a 5 % CO2-supplemented air atmosphere. After 5 days, medium was substituted by DMEM/F12 medium with 10 % FBS. Cells were cultured for 7-10 days before treatment.
Primary rat glial cells were treated with compounds 5a-t at increasing concentrations (3, 10, 30 and 60 µM) during 24 h. Thereafter, treatments were removed and glial cells were co-incubated with increasing concentrations of each compound and LPS (1 µg/mL) for 18 h more. At the end of this period, supernatant was collected and the presence of nitrites was analyzed by the Griess method with modifications.^20 Each plate included non-treated cells as basal nitrite production, sulforaphane (SFN, 10 µM) as positive control. Briefly, samples (150 µl) were mixed with DAPSONE (75 µl) and NEDA (75 µl), and the mixture was incubated at room temperature for 5 min. Light absorption was measured at 550 nm in a microplate reader (Labtech, Offenburg, Germany). All data were normalized to basal nitrite production, considering this value as 100% of nitrite production. EC50 values were calculated from dose-response curves represented as percentage of nitrite production reduction induced by the different concentrations of each compound. Concentration response curves were fitted by non-linear regression analysis of individual concentration-response curves using GraphPad Prism software (San Diego, CA, USA). EC50 values are expressed as mean ± SEM of four different experiments in triplicate.

[4] = test system: HepG2 cells; assay: Hepatotoxicity in HepG2 cell line (MTT); settings: 24 h
Procedure: Thus, it is relevant to study the potential neurotoxicity and hepatotoxicity of the novel dual GSK3β inhibitors-Nrf2 inducers 5a–t.
as §4
HepG2 cells were cultured according to supplier indications in EMEM supplemented with 10 % heat-inactivated FBS, 100 µg/mL streptomycin and 100 units/mL penicillin. Cells were maintained at 37 °C in humidified atmosphere of 95 % air and 5 % CO2. For experimental procedures, cells were cultured in 96-well plates at density of 1x10^5 cells/well. Treatments were performed in 1% FBS medium unless other concentration was specified. Cells were used from 4 up to 13 passages.
as §5

[5] = test system: primary rat glial cells; assay: ROS production in LPS-stimulated primary glial cultures (H2DCFDA); assay type: cell-based; settings: Glial cell, 24 h pre-incubation, 18 h co-incubation with LPS, 3 h with fluorescent dye, read-out: IC50 ROS reduction
From the text: as §1
Besides the increase in nitrite production, it is well known that LPS stimulation of microglia also induces the activation of NOX, which induces superoxide free radical production. In fact, this mechanism is synergistic with the expression of iNOS and the production of nitrites. In this respect, there is a body of evidence showing that NOX activation is a major contributor to ROS oxidative stress and neuronal death in AD[57][58]. […] In general, potency to reduce ROS production increased from ortho to para and meta as observed above.
(§3) Primary glial cells were cultured in bottom transparent 96-well black plates following standard protocol. Cells were pre-incubated with the corresponding compound at the selected concentrations, for 24 hours, and therafter, co-incubated with the corresponding compound and LPS (1 μM) during 18 h more. Then, treatments were removed and cells were loaded with the fluorescent probe 2′,7′-dichlorodihydrofluorescein diacetate (H2DCFDA) (10 μM) for 45 minutes in serum free glial culture medium. All experiments included cells treated with culture medium alone (basal). Cells were washed twice with culture medium and fluorescence intensity was recorded in a Fluostar Optima multiwall pate reader (BMG Labtech, Offenburg, Germany) at 485/520 nm as excitation and emission wavelengths respectively, each hour, during 3 hours period. Data were normalized with respect to basal conditions that were considered as 100%.
as §3, with “µM)” for “μM)”, “2',7'-dichlorodihydrofluorescein” for “2′,7′-dichlorodihydrofluorescein”
as §2

T1 sequence (P49841 whole entry): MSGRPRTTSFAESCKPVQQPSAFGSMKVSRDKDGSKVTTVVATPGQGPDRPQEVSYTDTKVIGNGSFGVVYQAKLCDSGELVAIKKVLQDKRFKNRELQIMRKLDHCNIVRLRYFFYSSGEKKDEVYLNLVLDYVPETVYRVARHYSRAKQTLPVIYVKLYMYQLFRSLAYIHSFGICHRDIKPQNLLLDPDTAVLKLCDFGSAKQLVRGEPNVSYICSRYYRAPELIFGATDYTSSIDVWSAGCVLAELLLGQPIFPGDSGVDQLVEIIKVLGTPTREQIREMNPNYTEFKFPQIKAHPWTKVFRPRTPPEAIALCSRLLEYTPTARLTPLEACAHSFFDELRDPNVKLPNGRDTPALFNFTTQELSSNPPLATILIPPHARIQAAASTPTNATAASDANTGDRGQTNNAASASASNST

Compound | IC50 [1] [µM] | SH-SY5Y LD50 [2] [µM] | IC50 [3] [µM] | HepG2 LD50 [4] [µM] | IC50 [5] [µM] | Ki ([1]; calculated from IC50 by Cheng-Prusoff equation, Km ATP 2.345 µM, read-out: Ki (apparent equilibrium dissociation constant)) [µM]
Cc1n[nH]c2c1C(c1cccs1)C(C#N)=C(N)O2 (centres unmarked) [Compound 5r, 6-Amino-3-methyl-4-(thiophen-2-yl)-2,4-dihydropyrano[2,3-c]pyrazole-5-carbonitrile] | > 30 | > 100 | > 60 | > 100 | > 60 | 
Cc1[nH]nc2c1C(c1ccc([N+](=O)[O-])cc1)C(C#N)=C(N)O2 (centres unmarked) [Compound 5p, 6-Amino-3-methyl-4-(4-nitrophenyl)-2,4-dihydropyrano[2,3-c]pyrazole-5-carbonitrile] | 16.3 ± 2.8 | > 100 | 26.7 ± 4.86 | > 100 | > 60 | 11.4
